In US20050164173A1, “Combined treatments and methods for treatment of mycoplasma and mycoplasma-like organism infections” (priority 2001, published 2005):

Tested on: mycoplasma-like organisms
Experiment: tritiated uracil incorporation into mycoplasma-density fractions of CEM culture supernatant (sucrose density gradient)
Format: cell-based
Conditions: control peak about 1200 counts
Source text: As shown in FIGS. 1A-1C, superoxide dismutase (SOD) from a vegetal source has a significant decreasing effect on mycoplasma growth. SOD was included in the medium at the first of the five day experiment. The SOD was purified from melon plant material.

## superoxide dismutase [SOD]
50 μg/ml SOD in medium from first of five days
  peak of tritiated uracil incorporation (mycoplasma growth): around 500 counts
100 μg/ml SOD in medium from first of five days
  peak of tritiated uracil incorporation (mycoplasma growth): around 250 counts
